Data: article PMC10797628
Changes are numbered by the printed parent chain.

Legend:
Y5.38F 5-HT1A receptor = molecular target: T1, Y5.38F 5-HT1A receptor (Homo sapiens, UniProt P08908, Y195F); assay: Radioligand binding, Y5.38F 5-HT1A
T1 sequence (P08908 1-422 Y195F): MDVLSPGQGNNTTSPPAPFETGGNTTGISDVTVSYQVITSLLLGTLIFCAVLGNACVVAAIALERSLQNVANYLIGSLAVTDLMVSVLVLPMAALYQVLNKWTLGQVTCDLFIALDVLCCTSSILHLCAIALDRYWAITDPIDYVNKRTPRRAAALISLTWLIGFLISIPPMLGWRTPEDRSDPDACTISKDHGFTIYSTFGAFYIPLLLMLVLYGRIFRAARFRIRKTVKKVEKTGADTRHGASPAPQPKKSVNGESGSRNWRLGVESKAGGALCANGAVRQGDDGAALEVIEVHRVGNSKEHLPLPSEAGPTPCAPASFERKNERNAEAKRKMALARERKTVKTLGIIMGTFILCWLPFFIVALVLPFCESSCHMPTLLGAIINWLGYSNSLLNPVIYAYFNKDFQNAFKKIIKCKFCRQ
Protocol: 48 hours after transfection with the desired receptor construct, cells were isolated for saturation and competition binding assays as previously described.[47],[48],[57] Saturation and competition radioligand binding assays were conducted in an assay buffer consisting of 50 mM Tris HCl, 10 mM MgCl2, and 0.1 mM EDTA in filtered deionized water. […] Briefly, 5–10 μg of the receptor protein, as determined by a Thermo Fisher Pierce BCA protein assay kit, was incubated with 8 concentrations of radioligand in triplicate to determine total binding. […] Nonspecific binding was determined as above for saturation assays.
For radioligand binding data, nonspecific binding was subtracted from the total binding to get specific binding. Saturation binding data was fit to the “binding saturation-specific binding with hill slope” model. Competition binding data were fit to the “binding competition-one-site fit Ki” non-linear regression model and transformed to pKi values, reported as mean ± SD.
is 50 mM Tris HCl, 10 mM MgCl2 and 0.1 mM EDTA in filtered deionized water.

S5.42A 5-HT1A receptor = molecular target: T2, S5.42A 5-HT1A receptor (Homo sapiens, UniProt P08908, S199A); assay: cAMP accumulation in HEK293T cells, S5.42A 5-HT1A; format: cell-based; parameters: mutated in house (Quikchange II) HTR01A0000; host or cells: HEK293T; conditions: point-mutated receptor, 3 independent experiments, read-out: pEC50 5-HT1A Receptor S5.42A (converted)
T2 sequence (P08908 1-422 S199A): T1 sequence (P08908 1-422 Y195F) with F195Y, S199A
Protocol: (§1) Briefly, cells transfected with the desired receptor construct and compounds were incubated in the dark for 90 min at 37 °C. After incubation, cAMP detection reagents were added, and TR-FRET was used to quantify the cAMP produced.
(§2) The functional activity of compounds was determined by stimulating cells expressing the desired receptor with FSK and test compound in parallel with 12 known concentrations of cAMP. The known concentrations of cAMP were used to create a standard curve for each experiment that was used to interpolate the unknown values of cAMP in wells with test compounds. […] The EC50 and EMAX values were determined using the “dose response – log[agonist] vs response (three parameter)” nonlinear regression model in Prism and transformed to pEC50 values, reported as mean ± SD.
(§3) Summary of functional assay conditions at various 5-HT1 receptor point mutation constructs.

Y5.38A 5-HT1A receptor = molecular target: T3, Y5.38A 5-HT1A receptor (Homo sapiens, UniProt P08908, Y195A); assay: cAMP accumulation in HEK293T cells, Y5.38A 5-HT1A; format: cell-based; parameters: mutated in house (Quikchange II) HTR01A0000; host or cells: HEK293T; conditions: point-mutated receptor, 3 independent experiments, read-out: pEC50 5-HT1A Receptor Y5.38A (converted)
T3 sequence (P08908 1-422 Y195A): T1 sequence (P08908 1-422 Y195F) with F195A
Protocol: as §1, §2, §3

T7.39N 5-HT1B receptor = T7.39N 5-HT1B receptor (Homo sapiens, UniProt P28222, T355N); assay: cAMP accumulation in HEK293T cells, T7.39N 5-HT1B; format: cell-based; parameters: host or cells: HEK293T; conditions: point-mutated receptor, 3 independent experiments, read-out: pEC50 5-HT1B Receptor N7.39T (converted)
Protocol: as §1, §2, §3

N7.39T 5-HT1A receptor = molecular target: T4, N7.39T 5-HT1A receptor (Homo sapiens, UniProt P08908, N386T); assay: cAMP accumulation in HEK293T cells, N7.39T 5-HT1A; format: cell-based; parameters: mutated in house (Quikchange II) HTR01A0000; host or cells: HEK293T; conditions: point-mutated receptor, 3 independent experiments, read-out: pEC50 5-HT1A Receptor N7.39T (converted)
T4 sequence (P08908 1-422 N386T): T1 sequence (P08908 1-422 Y195F) with F195Y, N386T
Protocol: as §1, §2, §3

Sequence of T7.39N 5-HT1B receptor (P28222 whole entry T355N): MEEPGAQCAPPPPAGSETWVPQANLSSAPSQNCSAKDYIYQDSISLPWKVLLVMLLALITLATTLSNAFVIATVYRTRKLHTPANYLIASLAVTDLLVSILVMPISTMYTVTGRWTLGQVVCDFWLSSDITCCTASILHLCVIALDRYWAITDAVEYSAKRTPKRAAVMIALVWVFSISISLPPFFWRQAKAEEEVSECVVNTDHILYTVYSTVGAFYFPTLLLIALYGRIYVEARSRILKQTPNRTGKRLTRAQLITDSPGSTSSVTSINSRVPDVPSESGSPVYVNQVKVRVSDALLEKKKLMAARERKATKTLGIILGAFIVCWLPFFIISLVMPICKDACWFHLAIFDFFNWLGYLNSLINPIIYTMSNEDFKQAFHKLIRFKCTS

Structure (SMILES) | Ki (Y5.38F 5-HT1A receptor) | EC50 (S5.42A 5-HT1A receptor) | EC50 (Y5.38A 5-HT1A receptor) | EC50 (T7.39N 5-HT1B receptor) | EC50 (N7.39T 5-HT1A receptor)
CN(C)[C@H]1CCc2c(cccc2-c2cccc3ccccc23)C1 [(S)-NAP] | 0.0603 µM | 0.363 µM | 4.68 µM | 0.0372 µM | 0.347 µM
Fc1ccccc1-c1cccc2c1CC[C@H](N1CCCC1)C2 [(S)-PFPT] | 0.00174 µM | 0.00162 µM | 0.00204 µM | 0.0195 µM | 0.0251 µM
